US6436631B1, “Comparative phenotype analysis for assessment of biologically active compounds such as antimicrobials” (priority 2000, dated 2002)
Where a SMILES comes first, the peptide text is derived from it.

How the values were obtained:
Format in all cases: cell-based
[1] = tested on: Saccharomyces cerevisiae (BY4741); test: EA MicroPlate nutrient stimulation test without methionine (iodo-nitro-tetrazolium violet reduction); conditions: L-methionine well (25 μM); 30° C., 2 days, visual
Experimental: In this Example, the response of a yeast to various compounds was tested. The yeast used in these experiments was Saccharomyces cerevisiae (BY4741, obtained from Dr. Mark Johnston, Washington University, St. Louis, Mo.). The genotype of this strain was indicated as being Mat a (i.e., mating type “a”), ura-, his-, leu-, and met-. In these experiments, the ability of this strain to grow in a culture medium without methionine was investigated. Methionine interferes with the ability to test this organism for its utilization of other potential sulfur sources (i.e., if methionine is added to a culture medium the organism preferentially uses it as a sulfur source). The yeast was grown for 48 hours at 30° C. on R2A agar medium (Acumedia). Cells were removed from the agar surface with a sterile cotton swab and suspended at a cell density of 65% transmittance (as read using a BiologTM turbidimeter) in an inoculating fluid containing 50 mM glucose, 0.15 mM uracil, 0.15 mM L-histidine, 0.15 mM L-leucine, 0.15 mM MgCl2, 1.0 mM CaCl2, 2.0 mM NaCl, 1.0 mM KCl, 3.0 mM NH4Cl, 1.0 mM NaH2PO4, 0.1 mM Na2SO4, 0.01% iodo-nitro-tetrazolium violet, 0.01% phytagel (gellan gum), 0.03% pluronic F-68; the pH was adjusted to 6.0. The cell suspension (100 μl/well) was then used to inoculate a BiologTM EA MicroPlateTM, which tests the ability of a cell to be stimulated by a set of 95 different nutrients. The nutrients included within the microarray were: […] One well (A-1) contains no nutrients and is used as a reference (i.e., control) well. After inoculation, the microarray was incubated at 30° C. for 2 days and visually observed.

E. coli MG1655 = test: phenotype microarray (PM) comparative profiling of antimicrobials, S-O-R scoring, distance matrix and dendrogram; conditions: 7 PMs; for clustering in dendrogram of PM S-O-R response (FIG. 4): 1x level of each antimicrobial (lowest concentration giving detectable inhibition of respiration), 665 phenotypes, 48 hours; for PM response pattern (fingerprint) of cells exposed to the antimicrobial: partially inhibitory concentrations (1x, 2x)
From the text: In this Example, experiments are described in which the feasibility of using PMs for analyzing the metabolic effects of antimicrobial compounds and their mechanisms of action were investigated. Specifically, the experiments were designed to determine whether compounds that act via interaction with specific bacterial proteins (“target-specific”) can be distinguished from those acting via non-specific mechanisms, solely on the basis of differences in signature metabolic profiles. In addition, the experiments were designed to determine whether different interactors of the same pathway produce a similar signature profile, as well as whether interactors of different pathways produce distinctly different profiles.
Twenty chemicals were selected for inclusion in these experiments. Fifteen of these, listed below in Table 3 as “single target antimicrobials” are thought to have relatively specific modes of action, whereas five antimicrobials, listed as “multiple target antimicrobials” are thought to have non-specific modes of action.
An initial set of experiments was performed to select the concentrations of each chemical as it was desirable to use a partially inhibitory concentration. A completely inhibitory or sub-inhibitory concentration would not provide any information. Partial inhibitory levels were determined using the criterion of decreased formation of purple color due to inhibition of tetrazolium violet reduction (i.e., respiration). Each compound was tested at two concentrations giving partial inhibition of respiration. The lower concentration, referred to as “1x,” was the lowest concentration giving detectable inhibition of respiration. The higher concentration, referred to as “2x,” was twice the 1x concentration. […] Thus, only 1x and 2x concentrations were used.
In these experiments, E. coli MG1655 was tested against 20 antimicrobials at two concentrations using 7 PMs each, for a total of 280 PMs. […] Since in these experiments each PM contains 95 phenotypes, the total number of phenotypes analyzed here was 26,600. Each PM was monitored kinetically every 15 minutes using a specialized instrument described is U.S. patent application Ser. No. 09/277,353 (herein incorporated by reference) for an incubation duration of 48 hours. Thus, the total number of data points for the experiments was 5,107,200.
The results of the data collected for a run is a kinetic phenotype of the cell exposed to an antimicrobial overlaid and compared against the phenotype of the cell without exposure to the antimicrobial. When the two kinetic tracings of tetrazolium reduction (i.e., cell respiration) overlap, there is no difference in the response to that phenotype (indicated as “O”). When the control tracing exceeds the antimicrobial tracing, the organism is scored as “more sensitive” or “S.” When the antimicrobial tracing exceeds the control tracing, the organism is scored as “more resistant,” or “R.” Based on visual examination of the PMs after incubation, the threshold values for judging S and R results were determined. The software then automatically calculated the areas under the differential tracings and applied threshold values to score all 26,600 phenotypes as S, O, or R.
From the S—O—R data, a distance matrix was generated. The S—O—R response (a string of 665 values) for one antimicrobial was compared to the response for another antimicrobial, and the differences summed up. A difference of O to S or of O to R was assigned a value of 1, and a difference of S to R was assigned a value of 2. The string of 665 differences was then summed up.

E. coli (MG1655) = test: BAC combination (synergy/antagonism) testing in ES1, ES2 and ES3 MicroPlate sensitivity panels, tetrazolium violet
Experimental: In this Example, the susceptibility of E. coli (MG1655) was tested in the presence of vancomycin (10 μg/ml) or sulfamethoxazole (235 μg/ml) in microarrays containing various additional compounds. The microarrays were present in three Biolog™ sensitivity test panels, referred to as ES1, ES2 and ES3 MicroPlates™. The organisms were added to a sterile aqueous suspension containing 0.40% NaCl, 0.03% pluronic F68, 0.01% phytagel, and 0.01% tetrazolium violet, to a cell density of 85% transmittance (as measured using a BiologTm turbidimeter). The BAC to be tested was added to the suspension just prior to inoculating the organisms (100 μl/well) into the wells of the microarrays. The wells of these ES MicroPlates™ contained a basal broth medium consisting of tryptone (2 g/L), yeast extract (1 g/L), and NaCl (1 g/L). […]

Compound: CSCC[C@H](N)C(=O)O [L-methionine]
- stimulation of growth/respiration (pink color) in medium without methionine [1]: increased pink color

Compound: CC1(C)S[C@@H]2[C@H](NC(=O)[C@H](N)c3ccccc3)C(=O)N2[C@H]1C(=O)O [ampicillin]
- clustering in dendrogram of PM S-O-R response (FIG. 4) (E. coli MG1655): cluster

Compound: O=[N+]([O-])c1ncc[nH]1 [azomycin]
- change of sensitivity of E. coli strain to panel compound (E. coli (MG1655); in the presence of 235 μg/ml sulfamethoxazole, azomycin at 0.2, 0.4, 0.8 and 1.6 μg/ml): increased sensitivity

Compound: CC[C@H](C)[C@H](N)C1=N[C@H](C(=O)N[C@@H](CC(C)C)C(=O)N[C@H](CCC(=O)O)C(=O)N[C@H](C(=O)N[C@H]2CCCCNC(=O)[C@H](CC(N)=O)NC(=O)[C@@H](CC(=O)O)NC(=O)[C@H](Cc3cnc[nH]3)NC(=O)[C@@H](Cc3ccccc3)NC(=O)[C@H]([C@@H](C)CC)NC(=O)[C@@H](CCCN)NC2=O)[C@@H](C)CC)CS1 [bacitracin] (HELM PEPTIDE1{[CC[C@H](C)[C@H](N)C1=N[C@H](C(=O)[*:2])CS1].L.[dE].I.K.[NCCC[C@@H](N[*:1])C(=O)[*:2]].I.[dF].H.[dD].N}$PEPTIDE1,PEPTIDE1,5:R3-11:R2$$$V2.0)
- clustering in dendrogram of PM S-O-R response (FIG. 4) (E. coli MG1655): cluster

Compound: N[C@@H](C(=O)N[C@@H]1C(=O)N2C(C(=O)O)=C(Cl)CS[C@H]12)c1ccccc1 [cefaclor]
- change of sensitivity of E. coli strain to panel compound (E. coli (MG1655); in the presence of 235 μg/ml sulfamethoxazole, cefaclor at 1.33, 2.66 and 5.33 μg/ml): increased sensitivity

Compound: Cc1nnc(SCC2=C(C(=O)O)N3C(=O)[C@@H](NC(=O)Cn4cnnn4)[C@H]3SC2)s1 [cefazolin]
- change of sensitivity of E. coli strain to panel compound (E. coli (MG1655); in the presence of 10 μg/ml vancomycin, cefazolin at 2.0 and 4.0 μg/ml): increased sensitivity
- change of sensitivity of E. coli strain to panel compound (E. coli (MG1655); in the presence of 235 μg/ml sulfamethoxazole, cefazolin at 0.5, 1.0, 2.0 and 4.0 μg/ml): increased sensitivity

Compound: CO[C@@]1(NC(=O)Cc2cccs2)C(=O)N2C(C(=O)O)=C(COC(N)=O)CS[C@@H]21 [cefoxitin]
- change of sensitivity of E. coli strain to panel compound (E. coli (MG1655); in the presence of 10 μg/ml vancomycin, cefoxitin at 0.75 and 1.5 μg/ml): increased sensitivity

Compound: NC(=O)c1cc[n+](CC2=C(C(=O)O)N3C(=O)[C@@H](NC(=O)[C@@H](c4ccccc4)S(=O)(=O)[O-])[C@H]3SC2)cc1 [cefsulodin]
- change of sensitivity of E. coli strain to panel compound (E. coli (MG1655); in the presence of 235 μg/ml sulfamethoxazole, cefsulodin at 8 and 16 μg/ml): increased sensitivity

Compound: O=C(Cc1cccs1)N[C@@H]1C(=O)N2C(C(=O)[O-])=C(C[n+]3ccccc3)CS[C@H]12 [cephaloridine]
- change of sensitivity of E. coli strain to panel compound (E. coli (MG1655); in the presence of 235 μg/ml sulfamethoxazole, cephaloridine at 0.75, 1.5, 3.0 and 6.0 μg/ml): increased sensitivity

Compound: CC(=O)OCC1=C(C(=O)O)N2C(=O)[C@@H](NC(=O)Cc3cccs3)[C@H]2SC1 [cephalothin]
- change of sensitivity of E. coli strain to panel compound (E. coli (MG1655); in the presence of 10 μg/ml vancomycin, cephalothin at 10 and 20 μg/ml): increased sensitivity
- change of sensitivity of E. coli strain to panel compound (E. coli (MG1655); in the presence of 235 μg/ml sulfamethoxazole, cephalothin at 5.0, 10 and 20 μg/ml): increased sensitivity
- clustering in dendrogram of PM S-O-R response (FIG. 4) (E. coli MG1655): cluster

Compound: C/C=C/C/C=C/CCC(=O)[C@H]1O[C@H]1C(N)=O [cerulenin]
- PM response pattern (fingerprint) of cells exposed to the antimicrobial (E. coli MG1655): more closely resembled the multiple target antimicrobials

Compound: O=C(N[C@H](CO)[C@H](O)c1ccc([N+](=O)[O-])cc1)C(Cl)Cl [chloramphenicol]
- clustering in dendrogram of PM S-O-R response (FIG. 4) (E. coli MG1655): cluster

Compound: [Cl][Cr]([Cl])[Cl] [chromium chloride]
- change of sensitivity of E. coli strain to panel compound (E. coli (MG1655); in the presence of 235 μg/ml sulfamethoxazole, chromium chloride at 200 and 400 μg/ml): increased sensitivity

Compound: [Cl][Co][Cl] [cobalt chloride]
- change of sensitivity of E. coli strain to panel compound (E. coli (MG1655); in the presence of 235 μg/ml sulfamethoxazole, cobalt chloride 12 and 25 μg/ml): increased sensitivity

Compound: CC(=O)O[C@H]1C[C@@]2(C)[C@@H](C[C@@H](O)[C@H]3[C@@]4(C)CC[C@@H](O)[C@@H](C)[C@@H]4CC[C@@]32C)/C1=C(\CCC=C(C)C)C(=O)O [fusidic acid]
- change of sensitivity of E. coli strain to panel compound (E. coli (MG1655); in the presence of 10 μg/ml vancomycin, fusidic acid at 200 and 400 μg/ml): increased sensitivity

Compound: CCn1cc(C(=O)O)c(=O)c2ccc(C)nc21 [nalidixic acid]
- change of sensitivity of E. coli strain to panel compound (E. coli (MG1655); in the presence of 10 μg/ml vancomycin, nalidixic acid at 1.0, 2.0 and 4.0 μg/ml): increased sensitivity
- clustering in dendrogram of PM S-O-R response (FIG. 4) (E. coli MG1655): did not cluster with the other two DNA gyrase inhibiting chemicals

Compound: [Cl][Ni][Cl] [nickel chloride]
- change of sensitivity of E. coli strain to panel compound (E. coli (MG1655); in the presence of 235 μg/ml sulfamethoxazole, nickel chloride at 20 and 40 μg/ml): increased sensitivity

Compound: CO[C@@H]1[C@@H](OC(N)=O)[C@@H](O)[C@H](Oc2ccc3c(O)c(NC(=O)c4ccc(O)c(CC=C(C)C)c4)c(=O)oc3c2C)OC1(C)C [novobiocin]
- change of sensitivity of E. coli strain to panel compound (E. coli (MG1655); in the presence of 10 μg/ml vancomycin, novobiocin at 33 and 66 μg/ml): increased sensitivity
- change of sensitivity of E. coli strain to panel compound (E. coli (MG1655); in the presence of 235 μg/ml sulfamethoxazole, novobiocin at 66 and 133 μg/ml): increased resistance

Compound: CCn1cc(C(=O)O)c(=O)c2cc3c(cc21)OCO3 [oxolinic acid]
- clustering in dendrogram of PM S-O-R response (FIG. 4) (E. coli MG1655): clustered

Compound: C[C@@H]1O[C@@H]1P(=O)(O)O [phosphomycin]
- clustering in dendrogram of PM S-O-R response (FIG. 4) (E. coli MG1655): cluster

Compound: [H]/N=C(/N)N[C@H]1[C@H](O)[C@@H](O)[C@H](O[C@@H]2O[C@@H](C)[C@](O)(C=O)[C@H]2O[C@@H]2O[C@@H](CO)[C@H](O)[C@@H](O)[C@@H]2NC)[C@@H](N/C(N)=N\[H])[C@@H]1O [streptomycin]
- clustering in dendrogram of PM S-O-R response (FIG. 4) (E. coli MG1655): cluster

Compound: Nc1ccc(S(=O)(=O)Nc2nccs2)cc1 [sulfathiazole]
- PM response pattern (fingerprint) of cells exposed to the antimicrobial (E. coli MG1655): more closely resembled the multiple target antimicrobials

Compound: COc1cc(Cc2cnc(N)nc2N)cc(OC)c1OC [trimethoprim]
- change of sensitivity of E. coli strain to panel compound (E. coli (MG1655); in the presence of 10 μg/ml vancomycin, trimethoprim at 0.17, 0.33, 0.67 and 1.3 ng/ml): increased sensitivity
- change of sensitivity of E. coli strain to panel compound (E. coli (MG1655); in the presence of 235 μg/ml sulfamethoxazole, trimethoprim at 0.17, 0.33, 0.67 and 1.3 ng/ml): increased sensitivity

Compound: coumermycin
- clustering in dendrogram of PM S-O-R response (FIG. 4) (E. coli MG1655): clustered

Compound: polymyxin B
- PM response pattern (fingerprint) of cells exposed to the antimicrobial (E. coli MG1655): more closely resembled the multiple target antimicrobials
